Biological target: T1, mutant B-RAF (Homo sapiens, UniProt P15056, V600E)
T1 construct: purchased Upstate (Charlottesville, Va.)
Experiment: RAF biochemical assay (MEK-1 phosphorylation, anti-phospho MEK1/2 detection)
Settings: not given
Description: Materials: The RAF kinases and the anti-phospho MEK1/2 antibody were from Upstate (Charlottesville, Va.). The RAF substrate used was full length N-terminal GST-MEK-1, which was expressed in E. coli and purified in-house by HPLC. All proteins were aliquoted and stored at −80° C.
Compounds were serially diluted in assay buffer containing 1% DMSO and 20 μL of test compound at a concentration 3-fold more than the final concentration, and were added to a polypropylene V-well reaction plate. Vehicle control wells received buffer only with DMSO at equivalent concentrations to the test wells. […] These reaction plates were incubated at room temperature for 30 minutes. Capture of MEK-1 was initiated by transferring 50 μl of the reaction mixture to a Nunc Maxisorp™ microplate that is designed for non-specific protein capture. After 30 minute capture of MEK-1 at room temperature, this plate was washed with TBST (6×200 μL/well) to fully terminate the reaction. The plate was then blocked for 1 hour by the addition of 100 μl/well of Superblock™ in phosphate buffered saline (PBS) blocking reagent. Plate was again washed with TBST (6 times with 200 μL/well), followed by the addition of 70 μL/well of Upstate anti-phospho MEK 1/2 diluted 1:1000 in Pierce Superblock (PBS). After a 60 minute incubation, this plate was washed with TBST (6 times with 200 μL/well), and 70 μL of the secondary antibody (Pierce Alkaline Phosphatase tagged goat anti-rabbit) prepared at 1:4000 in Superblock, were added. After a 45 minute incubation at room temperature, the wells of the microplate were washed with TBST (6 times with 200 μL/well), and thereafter 100 μl/well of Attophos™ fluorescent alkaline phosphatase substrate was added according to the manufacturer's instructions (JBL Scientific).

T1 sequence (P15056 whole entry V600E): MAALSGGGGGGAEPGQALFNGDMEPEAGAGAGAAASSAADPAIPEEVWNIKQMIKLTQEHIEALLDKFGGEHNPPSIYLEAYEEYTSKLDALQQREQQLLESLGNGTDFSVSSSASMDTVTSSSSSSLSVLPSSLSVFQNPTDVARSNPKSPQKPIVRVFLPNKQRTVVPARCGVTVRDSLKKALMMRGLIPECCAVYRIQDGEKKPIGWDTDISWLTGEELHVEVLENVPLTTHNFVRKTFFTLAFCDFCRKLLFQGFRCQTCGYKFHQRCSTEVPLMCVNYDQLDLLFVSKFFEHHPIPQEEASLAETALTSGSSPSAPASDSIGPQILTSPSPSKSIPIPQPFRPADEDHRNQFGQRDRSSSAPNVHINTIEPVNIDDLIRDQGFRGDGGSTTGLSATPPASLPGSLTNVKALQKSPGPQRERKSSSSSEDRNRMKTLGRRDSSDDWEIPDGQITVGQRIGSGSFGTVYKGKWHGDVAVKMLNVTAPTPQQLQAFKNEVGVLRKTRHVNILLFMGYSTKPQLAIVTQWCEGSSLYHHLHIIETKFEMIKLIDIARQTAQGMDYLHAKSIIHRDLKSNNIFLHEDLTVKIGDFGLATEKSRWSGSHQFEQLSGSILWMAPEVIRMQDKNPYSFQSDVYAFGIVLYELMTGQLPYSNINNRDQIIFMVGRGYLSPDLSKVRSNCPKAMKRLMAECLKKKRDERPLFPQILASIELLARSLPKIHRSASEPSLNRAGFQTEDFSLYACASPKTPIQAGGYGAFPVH

Compound | IC50 [µM]
O=S(=O)(c1ccc(C(F)(F)F)cc1)N1CCC[C@@H](Nc2nccc(-c3c(-c4ccc(F)cc4)nc4occn34)n2)C1 [Example 58, 4-[6-(4-fluorophenyl)imi-dazo[2,1-b][1,3]oxazol-5-yl]-N-((3R)-1-{[4-(trifluoro-methyl)phenyl]sulfonyl}piperidin-3-yl)pyrimidin-2-amine] | 0.403

Same assay, conditions: @ 10 uM; read-out: Mutant B-RAF % inhibition

Compound | inhibition at 10 µM [%]
Cc1cn2c(-c3ccnc(NC4CCN(C(=O)NCc5ccco5)CC4)n3)c(-c3ccc(F)cc3)nc2s1 [Example 242, 4-({4-[6-(4-fluorophenyl)-2-methylimidazo[2,1-b][1,3]thiazol-5-yl]pyrimidin-2-yl}amino)-N-(2-furylmethyl)piperidine-1-carboxamide] | 67
Fc1ccc(-c2nc3sccn3c2-c2ccnc(NC3CCNCC3)n2)cc1F [Example 223, 4-[6-(3,4-difluorophenyl)imidazo[2,1-b][1,3]thiazol-5-yl]-N-piperidin-4-ylpyrimidin-2-amine] | 71
COc1ccc(Cl)cc1S(=O)(=O)N1CCC[C@@H](Nc2nccc(-c3c(-c4ccc(F)cc4)nc4occn34)n2)C1 [Example 61, N-{(3R)-1-[(5-chloro-2-methoxyphenyl)sulfonyl]piperidin-3-yl}-4-[6-(4-fluorophenyl)imidazo[2,1-b][1,3]oxazol-5-yl]pyrimidin-2-amine] | 37
COc1ccc(Cl)cc1NC(=O)N1CCC[C@@H](Nc2nccc(-c3c(-c4ccc(F)cc4)nc4occn34)n2)C1 [Example 70, (3R)-N-(5-chloro-2-methoxyphenyl)-3-({4-[6-(4-fluorophenyl)imidazo[2,1-b][1,3]oxazol-5-yl]pyrimidin-2-yl}amino)piperidine-1-carboxamide] | 49
COc1ccc(NC(=O)N2CCC[C@@H](Nc3nccc(-c4c(-c5ccc(F)cc5)nc5occn45)n3)C2)c(OC)c1 [Example 69, (3R)-N-(2,4-dimethoxy-phenyl)-3-({4-[6-(4-fluorophenyl)imidazo[2,1-b][1,3]oxazol-5-yl]pyrimidin-2-yl}amino)piperidine-1-carboxamide] | 42
CS(=O)(=O)N1CCC(Nc2nccc(-c3c(-c4ccc(F)cc4Cl)nc4occn34)n2)CC1 [Example 312, 4-[6-(2-chloro-4-fluorophenyl)imidazo[2,1-b][1,3]oxazol-5-yl]-N-[1-(methylsulfonyl)piperidin-4-yl]pyrimidin-2-amine] | 73

Same assay, conditions: read-out: Mutant B-RAF IC50

Compound | IC50 [µM]
O=S(=O)(c1ccc(Cl)cc1)N1CCC[C@@H](Nc2nccc(-c3c(-c4cc(O)ccc4O)nc4sccn34)n2)C1 [Example 145, 2-{5-(2-({(3R)-1-[(4-chlorophenyl)sulfonyl]piperidin-3-yl}amino)pyrimidin-4-yl]imidazo[2,1-b][1,3]thiazol-6-yl}benzene-1,4-diol] | 0.092
CC(=O)Nc1ccc(-c2nc3sccn3c2-c2ccnc(NC3CCN(S(=O)(=O)c4ccc(Cl)cc4)CC3)n2)cc1 [Example 259, N-(4-{5-[2-({1-[(4-chlorophenyl)sulfonyl]piperidin-4-yl}amino)pyrimidin-4-yl]imidazo[2,1-b][1,3]thiazol-6-yl}phenyl)acetamide] | > 3
NCCCC(=O)Nc1ccccc1-c1nc2sccn2c1-c1ccnc(N[C@@H]2CCCN(S(=O)(=O)c3ccc(Cl)cc3)C2)n1 [Example 136, 4-amino-N-(2-{5-[2-({(3R)-1-[(4-chlorophenyl)sulfonyl]piperidin-3-yl}amino)pyrimidin-4-yl]imidazo[2,1-b][1,3]thiazol-6-yl}phenyl)butanamide] | > 3
O=S(=O)(c1ccc(Cl)cc1)N1CCC[C@@H](Nc2nccc(-c3c(-c4ccc(CO)cc4)nc4sccn34)n2)C1 [Example 378, (4-{5-[2-({(3R)-1-[(4-chlorophenyl)sulfonyl]piperidin-3-yl}amino)pyrimidin-4-yl]imidazo[2,1-b][1,3]thiazol-6-yl}phenyl)methanol] | 2.26
Cc1ccc(S(=O)(=O)N2CCC(Nc3nccc(-c4c(-c5ccc(F)cc5)nc5occn45)n3)CC2)cc1 [Example 198, 4-[6-(4-fluorophenyl)imidazo[2,1-b][1,3]oxazol-5-yl]-N-{1-[(4-methylphenyl)sulfonyl]piperidin-4-yl}pyrimidin-2-amine] | 0.218
O=C(C1CCNCC1)N1CCC(Nc2nccc(-c3c(-c4ccc(F)cc4)nc4occn34)n2)CC1 [Example 162, 4-[6-(4-fluorophenyl)imidazo[2,1-b][1,3]oxazol-5-yl]-N-[1-(piperidin-4-ylcarbonyl)piper-idin-4-yl]pyrimidin-2-amine] | 1.32
COc1cccc(-c2nc3sccn3c2-c2ccnc(N[C@@H]3CCCN(S(=O)(=O)c4ccc(C(=O)O)cc4)C3)n2)c1 [Example 119, 4-{[(3R)-3-({4-[6-(3-methoxyphenyl)imidazo(2,1-b][1,3]thiazol-5-yl]pyrimidin-2-yl}amino)piperidin-1-yl]sulfonyl}benzoic acid] | 0.092
Cc1cn2c(-c3ccnc(NC4CCN(S(=O)(=O)c5ccc(C(=O)O)cc5)CC4)n3)c(-c3ccc(F)cc3)nc2s1 [Example 258, 4-{[4-({4-[6-(4-fluorophenyl)-2-methylimidazo[2,1-b][1,3]thiazol-5-yl]pyrimidin-2-yl}amino)piperidin-1-yl]sulfonyl}benzoic acid] | 0.322
O=S(=O)(c1ccc(Oc2ccccc2)cc1)N1CCC(Nc2nccc(-c3c(-c4ccc(F)cc4)nc4occn34)n2)CC1 [Example 238, 4-[6-(4-fluorophenyl)imidazo[2,1-b][1,3]oxazol-5-yl]-N-{1-[(4-phenoxyphenyl)sulfonyl]piper-idin-4-yl}pyrimidin-2-amine] | > 10
Cc1cn2c(-c3ccnc(NC4CCN(S(=O)(=O)c5ccc(Cl)cc5)CC4)n3)c(-c3ccc(F)cc3)nc2s1 [Example 257, N-{1-[(4-chlorophenyl)sulfonyl]piperidin-4-yl}-4-[6-(4-fluorophenyl)-2-methylimidazo[2,1-b][1,3]thiazol-5-yl]pyrimidin-2-amine] | 0.073
NC(=O)Oc1cccc(-c2nc3occn3c2-c2ccnc(N[C@@H]3CCCN(S(=O)(=O)c4ccc(Cl)cc4)C3)n2)c1 [Example 386, 3-{5-[2-({(3R)-1-[(4-chlorophenyl)sulfonyl]piperidin-3-yl}amino)pyrimidin-4-yl]imidazo[2,1-b][1,3]oxazol-6-yl}phenyl carbamate] | 0.109
Cc1cn2c(-c3ccnc(N[C@@H]4CCCN(C(=O)Nc5ccc(N(C)C)cc5)C4)n3)c(-c3ccc(F)cc3)nc2s1 [Example 94, (3R)-N-[4-(dimethyl-amino)phenyl]-3-({4-[6-(4-fluorophenyl)-2-methylimidazo[2,1-b][1,3]thiazol-5-yl]pyrimidin-2-yl}amino)piperidine-1-carboxamide] | > 3
Cc1ccc(-c2nc3scc(C)n3c2-c2ccnc(NC3CCN(C(=O)Nc4ccc(N(C)C)cc4)CC3)n2)cc1 [Example 252, N-[4-(dimethylamino)phenyl]-4-({4-[3-methyl-6-(4-methylphenyl)imidazo[2,1-b][1,3]thiazol-5-yl]pyrimidin-2-yl}amino)piperidine-1-carboxamide] | > 3
O=S(=O)(c1ccc(Cl)cc1)N1CCC(Nc2nccc(-c3c(-c4ccc(F)cc4)nc4sccn34)n2)CC1 [Example 255, N-{1-[(4-chlorophenyl)sulfonyl]piperidin-4-yl}-4-[6-(4-fluorophenyl)imidazo[2,1-b][1,3]thiazol-5-yl]pyrimidin-2-amine] | 0.696
O=S(=O)(c1ccc(Cl)cc1)N1CCC(Nc2nccc(-c3c(-c4ccc(F)c(F)c4)nc4sccn34)n2)CC1 [Example 265, N-{1-[(4-chlorophenyl)sulfonyl]piperidin-4-yl}-4-[6-(3,4-difluorophenyl)imidazo[2,1-b][1,3]thiazol-5-yl]pyrimidin-2-amine] | > 3
N#Cc1ccc(-c2nc3sccn3c2-c2ccnc(N[C@@H]3CCCN(S(=O)(=O)c4ccc(Cl)cc4)C3)n2)cc1 [Example 360, 4-{5-[2-({(3R)-1-[(4-chlorophenyl)sulfonyl]piperidin-3-yl}amino)pyrimidin-4-yl]imidazo[2,1-b][1,3]thiazol-6-yl}benzonitrile] | 2.47
O=C(NC1CCCCC1)N1CCC(Nc2nccc(-c3c(-c4ccc(F)cc4)nc4occn34)n2)CC1 [Example 167, N-cyclohexyl-4-({4-[6-(4-fluorophenyl)imidazo[2,1-b][1,3]oxazol-5-yl]pyrimidin-2-yl}amino)piperidine-1-carboxamide] | 4.71
COC(=O)CCc1ccc(S(=O)(=O)N2CCC(Nc3nccc(-c4c(-c5cccc(O)c5)nc5sccn45)n3)CC2)cc1 [Example 272, methyl 3-(4-{[4-({4-[6-(3-hydroxyphenyl)imidazo[2,1-b][1,3]thiazol-5-yl]pyrimidin-2-yl}amino)piperidin-1-yl]sulfonyl}phenyl)propanoate] | 0.01

Same assay, conditions: read-out: Mutant B-RAF IC50 (uM) or % inhibition

Compound | IC50 [µM]
O=S(=O)(c1ccsc1)N1CCC[C@@H](Nc2nccc(-c3c(-c4cccc(O)c4)nc4occn34)n2)C1 [Example 399, 3-[5-(2-{[(3R)-1-(3-thienylsulfonyl)piperidin-3-yl]amino}pyrimidin-4-yl)imidazo[2,1-b][1,3]oxazol-6-yl]phenol] | > 3

From patent US7501430B2 (ArQule, Inc., priority 2006, dated 2009)
